Values quoted from earlier work as cited in paper PMC8339258 (Frontiers in Pharmacology, 2021).

t1/2 (comparison in discussion, ref not given): > 100 h
terminal half-life (ref Hüttner et al., 2008, Heise et al., 2009, Blech al., 2010, Sarashina et al.): 142 h
Compound: CC#CCn1c(N2CCC[C@@H](N)C2)nc2c1c(=O)n(Cc1nc(C)c3ccccc3n1)c(=O)n2C [linagliptin, (R)-8-(3-Amino-piperidin-1-yl)-7-but-2-ynyl-3-methyl-1-(4-methyl-quinazolin-2-ylmethyl)-3,7-dihydro-purine-2,6-dione]
